Patent US12180207B2 (ARRAY BIOPHARMA INC., priority 2018, dated 2024)

Key:
[1] = target: FGFR3 (SEQ ID NO: 5, amino acids 449-759) (Homo sapiens (Human), UniProt P22607); assay: LC/MS FGFR3 kobs assay (covalent protein modification); type: binding; details: 500 nM FGFR3, 3 μM compound
How it was run: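 kobs is the rate constant from an exponential-decay fit of percent unmodified kinase, normalized to DMSO controls, averaged over multiple determinations where available. Time-course samples of FGFR1 (458-765) and FGFR3 (449-759) with compound were acid-quenched (0.4% formic acid) and protein adducts quantified by intact-mass LC/MS.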

[2] = target: recombinant human FGFR1 catalytic domain (amino acids 308-731) (Homo sapiens (Human), UniProt P11362); assay: FGFR1 enzyme activity assay (LanthaScreen TR-FRET); type: biochemical; details: 20 min incubation at 22° C., average of multiple determinations if made, read-out: FGFR1 Enz FRET IC50
recombinant human FGFR1 catalytic domain (amino acids 308-731), sequence (P11362 other isoform, or with tags, fused parts or gaps): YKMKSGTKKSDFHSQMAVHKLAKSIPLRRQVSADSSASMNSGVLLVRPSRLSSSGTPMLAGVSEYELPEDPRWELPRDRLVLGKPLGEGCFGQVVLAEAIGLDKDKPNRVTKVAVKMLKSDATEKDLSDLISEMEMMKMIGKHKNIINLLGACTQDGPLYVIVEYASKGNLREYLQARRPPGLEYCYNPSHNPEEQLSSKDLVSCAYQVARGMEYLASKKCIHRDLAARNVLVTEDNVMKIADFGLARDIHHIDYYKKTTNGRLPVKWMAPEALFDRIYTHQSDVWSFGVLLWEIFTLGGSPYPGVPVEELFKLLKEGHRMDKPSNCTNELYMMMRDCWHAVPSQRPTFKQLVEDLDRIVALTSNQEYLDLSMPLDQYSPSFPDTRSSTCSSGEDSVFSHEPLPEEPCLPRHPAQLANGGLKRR
How it was run: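 His-tagged FGFR1 kinase domain with 100 nM Alexa Fluor 647-poly-GT peptide and ATP in pH 7.5 HEPES/MgCl2 buffer with 2% DMSO, 20 min at 22 °C. Quenched with EDTA plus 2 nM Eu-PY20 antibody and read after 60 min. IC50 comes from a 4-parameter fit of percent of control.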

[3] = target: recombinant human FGFR2 cytoplasmic domain (amino acids 403-822) (Homo sapiens (Human), UniProt P21802); assay: FGFR2 enzyme activity assay (LanthaScreen TR-FRET); type: biochemical; details: 15 μM ATP, 20 min incubation at 22° C., average of multiple determinations if made, read-out: FGFR2 Enz FRET IC50
recombinant human FGFR2 cytoplasmic domain (amino acids 403-822), sequence (P21802 402-821): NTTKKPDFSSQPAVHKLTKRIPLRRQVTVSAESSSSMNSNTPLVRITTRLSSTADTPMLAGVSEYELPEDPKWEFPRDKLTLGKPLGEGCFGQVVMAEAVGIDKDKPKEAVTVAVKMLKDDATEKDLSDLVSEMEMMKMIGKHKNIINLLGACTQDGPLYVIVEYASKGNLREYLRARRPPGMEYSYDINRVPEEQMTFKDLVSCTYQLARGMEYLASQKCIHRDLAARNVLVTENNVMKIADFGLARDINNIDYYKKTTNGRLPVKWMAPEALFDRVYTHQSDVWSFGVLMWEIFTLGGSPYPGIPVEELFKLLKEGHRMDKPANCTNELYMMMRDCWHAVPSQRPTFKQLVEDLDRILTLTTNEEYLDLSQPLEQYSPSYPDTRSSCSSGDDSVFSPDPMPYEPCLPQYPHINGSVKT
How it was run: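 Substrate phosphorylation was read by TR-FRET using Eu-PY20 antibody (60 min, 22 °C) after a 20 min, 22 °C reaction. The reaction used 15 μM ATP, 100 nM fluorescent poly-GT peptide and His-tagged FGFR2 403-822 ([…]) at pH 7.5 with 2% DMSO.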

[4] = target: dephosphorylated FGFR1 (SEQ ID NO: 1, amino acids 458 to 765) (Homo sapiens (Human), UniProt P11362); assay: FGFR enzyme binding assay (HTRF tracer displacement), FGFR1; details: 5 nM dephosphorylated FGFR1, average of multiple determinations if made
dephosphorylated FGFR1 (SEQ ID NO: 1, amino acids 458 to 765), sequence (P11362 458-765): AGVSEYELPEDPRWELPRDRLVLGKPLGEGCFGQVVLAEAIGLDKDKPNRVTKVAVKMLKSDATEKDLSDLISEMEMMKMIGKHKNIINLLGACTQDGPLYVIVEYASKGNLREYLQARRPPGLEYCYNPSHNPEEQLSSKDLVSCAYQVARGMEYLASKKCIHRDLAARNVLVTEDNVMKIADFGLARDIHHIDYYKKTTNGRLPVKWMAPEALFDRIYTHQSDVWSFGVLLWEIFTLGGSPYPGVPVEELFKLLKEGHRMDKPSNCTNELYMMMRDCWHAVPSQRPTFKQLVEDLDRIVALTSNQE
How it was run: (§1)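 Kinase and tracer were incubated with compound for 60 minutes at 22° C. Tracer displacement was then measured by HTRF, and results were expressed as POC with 1 μM control inhibitor defining full displacement.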

[5] = target: FGFR1 (SEQ ID NO: 1, amino acids 458-765) (Homo sapiens (Human), UniProt P11362); assay: LC/MS FGFR1 kobs assay (covalent protein modification); type: binding; details: 500 nM FGFR1, 3 μM compound
FGFR1 (SEQ ID NO: 1, amino acids 458-765), sequence (P11362 458-765): as above
How it was run: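 Covalent labeling of FGFR1 kinase domain (aa 458-765) tracked over time by intact-protein LC/MS after formic acid quench. kobs derived by fitting DMSO-normalized percent unmodified FGFR1 to an exponential decay model.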

[6] = target: phosphorylated FGFR3 (SEQ ID NO: 5, amino acids 449 to 759) (Homo sapiens (Human), UniProt P22607); assay: FGFR enzyme binding assay (HTRF tracer displacement), FGFR3; details: 5 nM phosphorylated FGFR3, average of multiple determinations if made
phosphorylated FGFR3 (SEQ ID NO: 5, amino acids 449 to 759), sequence (P22607 449-759): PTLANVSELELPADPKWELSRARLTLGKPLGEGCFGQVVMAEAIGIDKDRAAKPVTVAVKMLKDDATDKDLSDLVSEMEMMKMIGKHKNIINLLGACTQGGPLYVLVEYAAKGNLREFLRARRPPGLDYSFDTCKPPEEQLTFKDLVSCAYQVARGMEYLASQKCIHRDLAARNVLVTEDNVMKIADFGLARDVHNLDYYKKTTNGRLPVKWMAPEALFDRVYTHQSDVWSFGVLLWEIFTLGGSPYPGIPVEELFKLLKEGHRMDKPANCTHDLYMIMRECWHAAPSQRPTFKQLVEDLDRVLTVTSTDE
How it was run: as §1

FGFR3 (SEQ ID NO: 5, amino acids 449-759), sequence (P22607 449-759): as above

Structure (SMILES) | FGFR3 Enz kobs [1] [min⁻¹] | IC50 [2] [nM] | IC50 [3] [nM] | IC50 [4] [nM] | FGFR1 Enz kobs [5] [min⁻¹] | IC50 [6] [nM]
C=CC(=O)N1CC2(CCN(C(=O)N3CCC(n4cc(-c5cc(OC)c6c(C#N)cnn6c5)cn4)CC3)CC2)C1 [Example 6, 6-(1-(1-(2-acryloyl-2,7-diazaspiro[3.5]nonane-7-carbonyl)piperidin-4-yl)-1H-pyrazol-4-yl)-4-methoxypyrazolo[1,5-a]pyridine-3-carbonitrile] | 0.00902 | 10 | 4 | 157 | 0.00093 | 18
C=CC(=O)N1C[C@H]2CN(C(=O)N3CCC(n4cc(-c5cc(OC)c6c(C#N)cnn6c5)cn4)CC3)C[C@H]21 [Example 7, 6-(1-(1-((1S,5S)-6-acryloyl-3,6-diazabicyclo[3.2.0]heptane-3-carbonyl)piperidin-4-yl)-1H-pyrazol-4-yl)-4-methoxypyrazolo[1,5-a]pyridine-3-carbonitrile] | 0.00305 | 18 | 6 | 52 | 0.00042 | 9
C=CC(=O)N1CC2(CCN(C(=O)N3CCC(n4cc(-c5cc(OC)c6c(C#N)cnn6c5)cn4)CC3)C2)C1 [Example 8, 6-(1-(1-(2-acryloyl-2,6-diazaspiro[3.4]octane-6-carbonyl)piperidin-4-yl)-1H-pyrazol-4-yl)-4-methoxypyrazolo[1,5-a]pyridine-3-carbonitrile] | 0.01122 | 18 | 7 | 73 | 0.00124 | 8
C=CC(=O)Nc1ccc(CN2CCC(n3cc(-c4cc(OC)c5c(C#N)cnn5c4)cn3)CC2)cc1 [Example 9, N-(4-((4-(4-(3-cyano-4-methoxypyrazolo[1,5-a]pyridin-6-yl)-1H-pyrazol-1-yl)piperidin-1-yl)methyl)phenyl)acrylamide] | 0.02298 | 32 | 5 | 56 | 0.0059 | 5
C=CC(=O)N(C)c1ccc(CN2CCC(n3cc(-c4cc(OC)c5c(C#N)cnn5c4)cn3)CC2)cc1 [Example 10, N-(4-((4-(4-(3-cyano-4-methoxypyrazolo[1,5-a]pyridin-6-yl)-1H-pyrazol-1-yl)piperidin-1-yl)methyl)phenyl)-N-methylacrylamide] | 0.01566 | 34 | 6 | 56 | 0.0034 | 4
C=CC(=O)N1CCC(n2cc(-c3cc(OC)c4c(C#N)cnn4c3)cn2)CC1 [Example 11, 6-(1-(1-acryloylpiperidin-4-yl)-1H-pyrazol-4-yl)-4-methoxypyrazolo[1,5-a]pyridine-3-carbonitrile] | 0.00206 | 22 | 7 | 210 | 0.0002 | 25
C=CC(=O)N1CCC(F)(C(=O)N2CCC(n3cc(-c4cc(OC)c5c(C#N)cnn5c4)cn3)CC2)CC1 [Example 13, 6-(1-(1-(1-acryloyl-4-fluoropiperidine-4-carbonyl)piperidin-4-yl)-1H-pyrazol-4-yl)-4-methoxypyrazolo[1,5-a]pyridine-3-carbonitrile] | 0.00418 | 10 | 2 | 245 | 0.00056 | 39
C=CC(=O)N1CC(OC)(C(=O)N2CCC(n3nc(C)c(-c4cc(OC)c5c(C#N)cnn5c4)c3C)CC2)C1 [Example 95, 6-(1-(1-(1-acryloyl-3-methoxyazetidine-3-carbonyl)piperidin-4-yl)-3,5-dimethyl-1H-pyrazol-4-yl)-4-methoxypyrazolo[1,5-a]pyridine-3-carbonitrile] | 0.04202 | 842 | 324 | 675 | 0.00409 | 26
C=CC(=O)N1CC(F)(C(=O)N2CCC(n3ncc(-c4cc(OC)c5c(C#N)cnn5c4)c3CC)CC2)C1 [Example 96, 6-(1-(1-(1-acryloyl-3-fluoroazetidine-3-carbonyl)piperidin-4-yl)-5-ethyl-1H-pyrazol-4-yl)-4-methoxypyrazolo[1,5-a]pyridine-3-carbonitrile] | 0.03335 | 384 | 155 | 1620 | 0.00363 | 73
C=CC(=O)N1CC(C(=O)N2CCC(n3cc(-c4cc(OC)c5c(C#N)cnn5c4)c(CC)n3)CC2)C1 [Example 97, 6-(1-(1-(1-acryloylazetidine-3-carbonyl)piperidin-4-yl)-3-ethyl-1H-pyrazol-4-yl)-4-methoxypyrazolo[1,5-a]pyridine-3-carbonitrile] | 0.01865 | 117 | 38 | 572 | 0.00276 | 53
C=CC(=O)N1CC(C(=O)N2CCC(n3cnc(-c4cc(OC)c5c(C#N)cnn5c4)c3)CC2)C1 [Example 98, 6-(1-(1-(1-acryloylazetidine-3-carbonyl)piperidin-4-yl)-1H-imidazol-4-yl)-4-methoxypyrazolo[1,5-a]pyridine-3-carbonitrile] | 0.01995 | 22 | 6 | 218 | 0.00167 | 19
C=CC(=O)N1CC(C(=O)N2CCN(c3ccc(-c4cc(OC)c5c(C#N)cnn5c4)cc3)CC2)C1 [Example 100, 6-(4-(4-(1-acryloylazetidine-3-carbonyl)piperazin-1-yl)phenyl)-4-methoxypyrazolo[1,5-a]pyridine-3-carbonitrile] | 0.02324 | 9 | 5 | 57 | 0.0025 | 5
C=CC(=O)N1CC(C(=O)N2CCC(c3ccc(-c4cc(OC)c5c(C#N)cnn5c4)cc3)CC2)C1 [Example 101, 6-(4-(1-(1-acryloylazetidine-3-carbonyl)piperidin-4-yl)phenyl)-4-methoxypyrazolo[1,5-a]pyridine-3-carbonitrile] | 0.01185 | 13 | 3 | 42 | 0.00223 | 3
COc1cc(-c2cnn(C3CCN(C(=O)C4CN(C(=O)C5=CCC5)C4)CC3)c2)cn2ncc(C#N)c12 [Example 137, 6-(1-(1-(1-(cyclobut-1-ene-1-carbonyl)azetidine-3-carbonyl)piperidin-4-yl)-1H-pyrazol-4-yl)-4-methoxypyrazolo[1,5-a]pyridine-3-carbonitrile] | 0.00097 | 12 | 4 | 49 |  | 8
COc1cc(-c2cnn(C3CCN(C(=O)C4(F)CN(C(=O)/C=C/C(F)(F)F)C4)CC3)c2C)cn2ncc(C#N)c12 [Example 155, (E)-6-(1-(1-(3-fluoro-1-(4,4,4-trifluorobut-2-enoyl)azetidine-3-carbonyl)piperidin-4-yl)-5-methyl-1H-pyrazol-4-yl)-4-methoxypyrazolo [1,5-a]pyridine-3-carbonitrile] |  | 255 | 114 | 426 | 0.03227 | 10
COc1cc(-c2cnn(C3CCN(C(=O)C4CN(C(=O)/C=C/CBr)C4)CC3)c2)cn2ncc(C#N)c12 [Example 180, (E)-6-(1-(1-(1-(4-bromobut-2-enoyl)azetidine-3-carbonyl)piperidin-4-yl)-1H-pyrazol-4-yl)-4-methoxypyrazolo[1,5-a]pyridine-3-carbonitrile] | 0.1329 | 19 |  | 14 | 0.04552 | 2
